Source: US20230373984A1, “CRYSTALLINE FORM I OF MELANOCORTIN RECEPTOR AGONIST COMPOUND AND PREPARATION METHOD THEREFOR” (LG CHEM, LTD., priority 2020, published 2023)
“Also recorded” adds a separate entry of the source.

Assays:
[1] = Stability assessment: storage for 4 weeks, HPLC analysis; assay type: physicochemical; conditions: for Stability assessment (HPLC), Open ACC: open state, accelerated condition (40° C., 75% RH); for Stability assessment (HPLC), Closed STR: sealed state, harsh condition, oven at 80° C.
Procedure: About 10-30 mg of the sample was stored for 4 weeks in an open state under the accelerated condition (40° C., 75% RH) or in a sealed state under the harsh condition in an oven at 80° C.

[2] = as above; assay type: physicochemical; conditions: stored at room temperature

Stability assessment (HPLC) ([1]; Initial, in % (unit assumed)): 98.72
Stability assessment (HPLC), Open ACC ([1]; Day 3, in % (unit assumed)): 98.22
Stability assessment (HPLC), Open ACC ([1]; Week 1, in % (unit assumed)): 98.45
Stability assessment (HPLC), Open ACC ([1]; Week 2, in % (unit assumed)): 98.40
Stability assessment (HPLC), Open ACC ([1]; Week 4, in % (unit assumed)): 98.32
Stability assessment (HPLC), Closed STR ([1]; Day 3, in % (unit assumed)): 97.35
Stability assessment (HPLC), Closed STR ([1]; Week 1, in % (unit assumed)): 97.28
Stability assessment (HPLC), Closed STR ([1]; Week 2, in % (unit assumed)): 97.82
Stability assessment (HPLC), Closed STR ([1]; Week 4, in % (unit assumed)): 97.30
Stability assessment (HPLC), Closed RT ([2]; Week 2, in % (unit assumed)): 97.99
Stability assessment (HPLC), Closed RT ([2]; Week 4, in % (unit assumed)): 97.74
SMILES: CC(C)C(=O)N([C@H]1C[C@@H](C(=O)N2CCOCC2)N(C(=O)[C@@H]2CN(C(C)(C)C)C[C@H]2c2ccc(Cl)cc2)C1)[C@H]1CC[C@@H](C)CC1.Cl [Example 1, N-((3S, 5S)-1-((3S,4R)-1-(Tert-Butyl)-4-(4-Chlorophenyl) Pyrrolidine-3-Carbonyl)-5-(Morpholine-4-Carbonyl) Pyrrolidin-3-yl)-N-((1s,4R)-4-Methylcyclohexyl) Isobutyramide Hydrochloride]
chemical stability (result in words) ([1]; accelerated condition (40° C., 75% RH) and harsh condition (80° C.), 4 weeks, listed as crystalline form I, Hydrochloride): showed chemical stability for 4 weeks; also recorded: exhibited chemical stability for 4 weeks
